In assay [1] the test system is Enterococcus faecium. The assay can be described thus: Evaluated for the bacterial growth inhibition and the concentration required for 50% inhibition against Streptococcus faecium (MTX resistant). In kind it is functional, organism-based.
Assay [2] has as its system Enterococcus faecium. In words: Evaluated for the bacterial growth inhibition and the concentration required for 50% inhibition against Streptococcus faecium ATCC 8043 strain. In kind it is functional, organism-based.

The structures appear in SMILES notation.

The values that follow come from ChEMBL document CHEMBL1122428, “Folate analogues. 20. Synthesis and antifolate activity of 1',2',3',4',5',6'-hexahydrohomofolic acid” (J Med Chem, 1983).

Take `Nc1nc(O)c2c(n1)NCC(CCNC1CCC(C(=O)O)CC1)N2` (configuration not stated): the figures for the Concentration in assay [1] and in assay [2] were greater than 2000 ng/mL and 260 ng/mL, respectively.

For the molecule `Nc1nc(O)c2c(n1)NCC(CCN[C@H]1CC[C@@H](C(=O)NC(CCC(=O)O)C(=O)O)CC1)N2` (some centres not stated), the Concentration in assay [1] was greater than 2000 ng/mL; in assay [2] it was 38 ng/mL.

Turning to `Nc1nc(O)c2c(n1)NCC(CCNC1CCC(C(=O)O)CC1)=N2` (configuration not stated), the figures for the Concentration in assay [1] and in assay [2] were greater than 2000 ng/mL and 130 ng/mL, respectively.

On to `Nc1nc(O)c2nc(CCN[C@H]3CC[C@@H](C(=O)NC(CCC(=O)O)C(=O)O)CC3)cnc2n1` (some centres not stated), for which the Concentration was greater than 2000 ng/mL in assay [1] and 2000 ng/mL in assay [2].

On to `Nc1nc(O)c2c(n1)NCC(CCN[C@H]1CC[C@@H](C(=O)NC(CCC(=O)O)C(=O)O)CC1)=N2` (some centres not stated), for which the Concentration is greater than 2000 ng/mL in assay [1] and 30 ng/mL in assay [2].

In the case of `Nc1nc(O)c2nc(CCNC3CCC(C(=O)O)CC3)cnc2n1` (configuration not stated), the Concentration in assay [1] and in assay [2] was greater than 2000 ng/mL throughout.
